Measured values as given in patent US20140289906A1, “Compositions Having Dicamba Decarboxylase Activity and Methods of Use” (priority 2013, published 2014).

Test system: Arabidopsis ecotype Columbia (Col-0)
Experiment: Arabidopsis root growth inhibition assay
Conditions: 6 days
Protocol: Phytotoxicity of other major dicamba decarboxylaed products was evaluated using Arabidopsis root growth inhibition assay. 4-chloro-3-methoxy phenol was purchased from Biogene Organics, Inc. (catalog number U06-642-79). 2,5-dichloro phenol was purchased from Sigma-Aldrich (catalog number D70007). Briefly, seeds of Arabidopsis ecotype Columbia (Col-0) were surface sterilized with 70% (v/v) ethanol for 5 minutes and 10% (v/v) bleach for 15 minutes. After being washed three times with distilled water, the seeds were germinated on 1× Murashige and Skoog (MS) medium with a pH of 5.7, 3% (w/v) sucrose, and 0.8% (w/v) agar. After incubation for 3.5 days, the seedlings were transferred to 1×MS medium containing B5 vitamin, 3% (w/v) sucrose, 1.2% (w/v) agar, and filter sterilized compounds was added to the media at 60° C. The concentrations of compounds including dicamba were 0 μM, 1.0 μM, and 10 μM. The seedlings were placed vertically, and the temperature maintained at 23° C. to allow root growth along the surface of the agar, with a photoperiod of 16 h of light and 8 h of dark.

## Oc1cc(Cl)ccc1Cl [2,5-dichloro phenol]
1.0 uM in MS medium
  Arabidopsis root growth: did not have any effect
10 uM in MS medium
  Arabidopsis root growth: did not have any effect
